Reference: US20250026741A1, “INHIBITORS OF THE ONCOGENIC SHP2 PHOSPHATASE AND USES THEREOF” (Sanford Burnham Prebys Medical Discovery Institute, priority 2021, published 2025)

Legend:
[1] = tested on: p-ERK1/2 in MOLM-13 AML cells; assay: Phospho-ERK1/2 immunoblot analysis, MOLM-13; format: cell-based; settings: MOLM-13, 3 h treatment; #02 3, 10, 30 μM; RMC-4550 1 μM
Protocol: Because SHP2 activity is critical for ERK activation, we used phospho-ERK1/2 (p-ERK1/2) as a more direct readout of SHP2 inhibitor efficacy. […] However, a greater effect of #02 was observed after 24 h treatment. […] This p-ERK rebound in MOLM-13 cells treated with RMC-4550 is reminiscent of previously reported data from human hepatoma Hep3B cells treated with SHP099.
Total protein extracts were prepared in modified RIPA lysis buffer (25 mM Tris-HCl, pH 7.4, 10% glycerol, 0.2% Triton™ X-100, 150 mM NaCl, 2 mM Na3VO4, 1 mM EDTA) containing a protease inhibitor cocktail (Roche Applied Science, Indianapolis, IN). Equal amounts of protein were separated on 4-12% (p-ERK1/2 blots) or 4-20% (SHP2 blots) Bis-Tris gels by SDS-PAGE and transferred to nitrocellulose (p-ERK1/2 blots) or 0.2 μm PVDF (SHP2 blots) membranes. Membranes were blocked in 5% dry milk (Bio-Rad, Hercules, CA) in TBS-Tween 20 (0.1% vol/vol; TBS-T) for 1 h at room temperature. Protein-bound membranes were incubated with indicated primary antibody overnight at 4° C. After washing three times with TBS-T, membranes were incubated for 1 h with horseradish peroxidase-conjugated secondary antibody, then visualized by an ECL Prime detection system (GE Healthcare). Immunoblotting experiments were carried out at least three times and representative images are shown. Densitometric quantitation of immunoblots was performed using Image Studio Lite Software. Changes of phosphorylated ERK1/2 to total ERK1/2 rations are expressed as percentage of the vehicle-treated controls. The following antibodies were used: Phospho-Erk1/2 Ab, Cell Signaling, #9101S; total Erk1/2 Ab, Cell Signaling, #9102S; SHP2 Ab, Bethyl, A301-544A, lot #1; GAPDH (14C10) mAb, Cell Signaling, #2118S, lot #14.

[2] = tested on: patient-derived AML cells; assay: Viability of AML patient-derived cells; format: cell-based, human; settings: 10 μM, two patient samples, 2 d, 4 d, or 6 d
Source text: Patient-derived AML cells were obtained from Carol Burian and Dr. James Mason (Scripps MD Anderson, La Jolla, CA) under approved IRB protocol 13-6180. Peripheral blood mononuclear cells (PBMCs) were isolated by traditional Ficoll-Paque™ PLUS (17-1440-02, GE Healthcare) centrifugation according to the manufacturer's instructions, and red blood cells were lysed using RBC Lysis Buffer (Alfa Aesar, cat. #J62990). Final PBMCs were resuspended in Bambanker serum-free freezing medium (Wako Pure Chemical Industries, Ltd.) and stored frozen before cell viability was assessed as described below.
(§1) Viability of AML, esophageal carcinoma, and TF-1 cells was assessed using the ATP-depletion assay CellTiter-Glo® (Promega). Cells were harvested at 1×10^6/mL to 2×10^6 cells/mL with cell numbers determined by trypan blue using the Countess Cell counter (Thermo Scientific) and resuspended in culture media. 3K cells (in 20 mL) were seeded in a 384-well format white, clear bottom microplate (#781098, Greiner) spotted with test compound or vehicle control (DMSO) using an Echo 555 Liquid Handler. […] Luminescence was read on a Tecan Spark® Multimode Microplate Reader and data analyzed using Graph Pad Prism software.

[3] = tested on: U-937 AML cells harboring G60R oncogenic mutation in SHP2; assay: Cell viability assay, U-937 (SHP2 G60R); format: cell-based; settings: U-937 cells (SHP2 G60R), 0.123 to 30 μM, 3 d
Source text: (§2) Oncogenic gain-of-function mutations in SHP2 drive leukemogenesis in a significant number of leukemia patients. However, due to their unique mechanism of action, the existing SHP2 allosteric inhibitors lack activity against the most common SHP2 oncogenic variants. Thus, we tested whether #02 can inhibit the growth of leukemia cells expressing oncogenic SHP2 variants. […] Using the U-937 AML cell line, which harbors a G60R oncogenic mutation in SHP2, we treated cells with either #02 or RMC-4550 at various concentrations, ranging from 0.123 to 30 μM (FIG. 4A). […] We also assessed the effects of #02 and RMC-4550 on ERK1/2 activation in the SHP2 mutant U-937 cell line. Similar to the immunoblot experiments described above, U-937 AML cells were treated with either vehicle control (DMSO), #02 (1, 3, 10, or 30 μM), or with RMC-4550 (1 μM) for 24 h and processed for p-ERK1/2 immunoblot analysis (FIG. 4B).
as §1, with “media.” for “media. 3K cells (in 20 mL) were seeded in a 384-well format white, clear bottom microplate (#781098, Greiner) spotted with test compound or vehicle control (DMSO) using an Echo 555 Liquid Handler.”

[4] = tested on: p-ERK1/2 in U-937 AML cells (SHP2 G60R); assay: Phospho-ERK1/2 immunoblot analysis, U-937; format: cell-based; settings: U-937, 24 h; #02 1, 3, 10, 30 μM; RMC-4550 1 μM
Source text: as §2
Total protein extracts were prepared in modified RIPA lysis buffer (25 mM Tris-HCl, pH 7.4, 10% glycerol, 0.2% Triton™ X-100, 150 mM NaCl, 2 mM Na3VO4, 1 mM EDTA) containing a protease inhibitor cocktail (Roche Applied Science, Indianapolis, IN). […] Densitometric quantitation of immunoblots was performed using Image Studio Lite Software. Changes of phosphorylated ERK1/2 to total ERK1/2 rations are expressed as percentage of the vehicle-treated controls. […]

[5] = tested on: MOLM-13 AML cells (expressing WT SHP2); assay: Cell viability assay (CellTiter-Glo), MOLM-13; format: cell-based; settings: regular MOLM-13 cells, 72 h, CRISPR comparison experiment
Protocol: (§3) Next, we performed an 11-day colony formation assay with TNBC cells treated with #02 or SHP099 at 5, 10, or 20 μM (FIG. 3D).
Finally, we evaluated the selectivity of our top two compounds, #01 and #02, on MOLM-13 AML cells in which SHP2 was depleted using CRISPR-Cas9 knock-out (KO). High-efficiency Cas9-editing MOLM-13 cells were generated by transducingMOLM-13 cells with a Cas9 lentiviral construct. Stable clones were tested for editing efficiency by performing TIDE analysis (45), and these MOLM13-Cas9 cells were transduced with a lentiviral construct containing an AAVS1 single guide RNA (sgRNA) and an mCherry reporter for bulk-sorting of cells with successful AAVS1 editing. […] Cells were treated with inhibitors at various concentrations (ranging from […] to 58 nM) or vehicle control (DMSO) for 72 h, before cell viability was assessed.
Viability of AML, esophageal carcinoma, and TF-1 cells was assessed using the ATP-depletion assay CellTiter-Glo® (Promega). Cells were harvested at 1×10^6/mL to 2×10^6 cells/mL with cell numbers determined by trypan blue using the Countess Cell counter (Thermo Scientific) and resuspended in culture media. […] Luminescence was read on a Tecan Spark® Multimode Microplate Reader and data analyzed using Graph Pad Prism software. […]

[6] = tested on: BT-549 triple-negative breast cancer cells; assay: TNBC cell viability assay (CellTiter-Glo), BT-549; format: cell-based; settings: BT-549 cells, various concentrations
Protocol: as §3
(§4) Triple-negative breast cancer cell viability was assessed using the ATP-depletion assay CellTiter-Glo (Promega). Briefly, 2.5K cells in […] media (RPMI+10% FBS+1× Penicillin-Streptomycin (Omega Scientific)) were seeded per well of a 384-well tissue culture treated plate (Greiner). 25 nL of 1000× test compound were added using a Labcyte Echo acoustic dispenser and the cells incubated for 5 days before addition of […] of CellTiter-Glo reagent as described by the manufacturer. Luminescence was detected on a BioTek Synergy 2 microplate reader and the values normalized to those of vehicle (DMSO) treated controls before being plotted using GraphPad Prism.

[7] = tested on: MDA-MB-468 triple-negative breast cancer cells; assay: TNBC cell viability assay (CellTiter-Glo), MDA-MB-468; format: cell-based; settings: MDA-MB-468 cells, various concentrations
Protocol: as §3, §4

[8] = tested on: TNBC cells (BT-549 and MDA-MB-468); assay: 11-day colony formation assay; format: cell-based; settings: 5, 10, or 20 μM, 11 days
Protocol: as §3
MDA-MB-468 and […] triple-negative breast cancer cells were maintained in DMEM+10% FBS supplemented with 1× Penicillin-Streptomycin/L-Glutamine (Omega Scientific). 1.5K cells (in […]) were seeded per well of a standard 24-well tissue culture plate (Falcon) and allowed to adhere for 24 h, before the addition of drug(s) as described. After a further 96 h, media was replaced with fresh media containing the same test compounds and concentrations. After 11 days, media was removed and cells stained with 0.5% Crystal Violet (in 20% methanol) for 20 min with agitation @ 80 rpm. Stain was removed and plates with stained cells were washed by being submerged in excess deionized water and allowed to air dry overnight before imaging.

[9] = tested on: MOLM-13-Cas9-mCherry cells with SHP2 KO; assay: SHP2 CRISPR-Cas9 knockout inhibitor selectivity assay (cell viability); format: cell-based; settings: MOLM-13-Cas9-mCherry SHP2 KO cells, 72 h
Protocol: Finally, we evaluated the selectivity of our top two compounds, #01 and #02, on MOLM-13 AML cells in which SHP2 was depleted using CRISPR-Cas9 knock-out (KO). High-efficiency Cas9-editing MOLM-13 cells were generated by transducingMOLM-13 cells with a Cas9 lentiviral construct. Stable clones were tested for editing efficiency by performing TIDE analysis (45), and these MOLM13-Cas9 cells were transduced with a lentiviral construct containing an AAVS1 single guide RNA (sgRNA) and an mCherry reporter for bulk-sorting of cells with successful AAVS1 editing. SHP2 KO was achieved by transducing MOLM-13-Cas9-mCherry cells with a lentivirus containing SHP2 dual sgRNAs, resulting in ˜80% reduction of SHP2 protein levels (FIG. 3G). #01, #02, and the SHP2 allosteric inhibitor SHP099 were tested in parallel on regular MOLM-13 cells (expressing WT SHP2) and MOLM-13-Cas9-mCherry cells with SHP2 KO. Cells were treated with inhibitors at various concentrations (ranging from […] to 58 nM) or vehicle control (DMSO) for 72 h, before cell viability was assessed.
High-efficiency Cas9-editing MOLM-13 cells were generated by transducing MOLM-13 cells with the pLenti-Cas9-blasticidin construct (Addgene plasmid #52962) and selecting single stable clones using flow-sorting. Clones were then tested for editing efficiency by performing TIDE analysis (45). These MOLM13-Cas9 cells were then transduced with a lentiviral construct containing an AAVS sgRNA and an mCherry reporter out of frame and downstream of an AAVS sgRNA targeting site. […]
For SHP2 KO, dual sgRNAs targeting SHP2 were cloned in the pLentiGuide puro vector (Addgene plasmid #52963) using a published protocol (50). […] SHP2 KO was evaluated by immunoblotting. […] For SHP2 KO, MOLM-13-Cas9-mCherry cells were seeded in nontreated 6-well-plates ([…] in 2.5 mL), with cell numbers determined by trypan blue using the Countess Cell counter (Thermo Scientific). […] Cell viability was assessed using the ATP-depletion assay CellTiter-Glo® (Promega) as described above, and data were analyzed using GraphPad Prism software.

[10] = tested on: MLL-AF10 leukemia cells expressing wild-type SHP2; assay: Cell viability assay, MLL-AF10 cells expressing wild-type SHP2; format: cell-based, mouse
Protocol: (§5) Cell viability assays of SHP099, #01, and #02 against mouse MLL-AF10 leukemia cells were conducted. Two MLL-AF10 cell lines were employed, one expressing wild-type SHP2, and the other expressing E76K mutant SHP2.

[11] = tested on: MLL-AF10 leukemia cells expressing E76K mutant SHP2; assay: Cell viability assay, MLL-AF10 cells expressing E76K mutant SHP2; format: cell-based, mouse
Protocol: as §5

Row | IC50 [3] | IC50 [5] | IC50 [10] | Structure (SMILES) | ERK1/2 activation (p-ERK1/2 levels) [1] | effect on growth of patient-derived AML samples [2] | ERK1/2 activation (p-ERK1/2 levels) [4] | effect on TNBC cell viability [6] | effect on TNBC cell viability [7] | effect on colony formation [8] | effect on viability of SHP2 KO cells [9] | cell viability IC50 [11]
1 | 33 µM |  |  | Cc1nc(N2CCC3(CC2)CO[C@@H](C)[C@H]3N)c(CO)nc1-c1cccc(Cl)c1Cl [RMC-4550, reference compound] | highly effective in impeding ERK1/2 activation | only affected the growth of sample 2 | a decrease in p-ERK1/2 levels was not detectable |  |  |  |  | 
2 |  | 9.4 µM | 4 µM | CC1(N)CCN(c2cnc(-c3cccc(Cl)c3Cl)c(N)n2)CC1 [SHP099, reference compound] |  |  |  | very minor effect on TNBC cell viability | very minor effect on TNBC cell viability | very weak effect on colony formation | either no effect, or a greatly reduced effect | insufficient for an IC50 value to be determined
